Among the data in patent US20250195483A1, “SPIRO PIPERIDINE DERIVATIVES AS INHIBITORS OF APOL1 AND METHODS OF USING SAME” (Vertex Pharmaceuticals Incorporated, priority 2022, published 2025) are IC50 values, retold here.

The structures appear in SMILES notation.

This test addresses T1, APOL1 (Homo sapiens, UniProt O14791).
T1 sequence (O14791 1-398): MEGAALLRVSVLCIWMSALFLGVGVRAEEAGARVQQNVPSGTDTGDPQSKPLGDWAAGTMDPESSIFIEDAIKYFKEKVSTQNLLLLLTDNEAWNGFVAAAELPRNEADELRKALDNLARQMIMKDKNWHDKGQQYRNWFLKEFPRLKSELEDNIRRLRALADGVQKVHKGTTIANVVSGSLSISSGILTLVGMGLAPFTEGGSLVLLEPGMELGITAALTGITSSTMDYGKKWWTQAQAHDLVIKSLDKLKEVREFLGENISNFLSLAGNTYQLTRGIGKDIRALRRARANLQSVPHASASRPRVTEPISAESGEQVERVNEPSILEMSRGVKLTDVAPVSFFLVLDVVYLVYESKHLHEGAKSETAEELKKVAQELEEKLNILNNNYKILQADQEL
Nature of the test: MultiTox-Fluor Multiplex Cytotoxicity Assay, tet-inducible APOL1 T-REx-HEK293 cells (G0, G1 or G2 clone not specified for Table 20). It is filed as cell-based. The settings on record: tet-induced, 24 hours with compound, ratio of dead to live cells, read-out: IP50 (i.e., IC50 for cell proliferation). The protocol: Human embryonic kidney (HEK293) cell lines containing a tet-inducible expression system (T-REx™; Invitrogen, Carlsbad, CA) and Adeno-associated virus site 1 pAAVS1-Puro-APOL1 G0 or pAAVS1-Puro-APOL1 G1 or pAAVS1-Puro-APOL1 G2 Clones G0 DC2.13, G1 DC3.25, and G2 DC4.44 were grown in a T-225 flask at ˜90% confluency in cell growth media (DMEM, 10% Tet-free FBS, 2 mM L-glutamine, 100 Units/mL penicillin-streptomycin, 5 μg/mL blasticidin S HCl, 1 μg/mL puromycin dihydrochloride). Cells were washed with DPBS and then trypsinized to dissociate from the flask. Media was used to quench the trypsin, cells were then pelleted at 200 g and resuspended in fresh cell assay media (DMEM, 2% Tet-free FBS, 2 mM L-glutamine, 100 Units/mL penicillin-streptomycin). Cells were counted and diluted to 1.17×10^6 cells/mL. 20 μL of cells (23,400/well) were dispensed in every well of a 384-well Poly-D-Lysine coated plate using the Multidrop dispenser. The plates were then incubated at room temperature for one hour.
Tetracycline is needed to induce APOL1 expression. 1 mg/mL tet stock in water was diluted to 250 ng/mL (5×) in cell assay media. 60 μL of cell assay media (no tet control) was dispensed in columns 1 and 24, and 60 μL of 5× tet in 384-PP-round bottom plate was dispensed in columns 2 to 23 with the Multidrop dispenser.
Assay ready plates from the Global Compound Archive were ordered using template 384_APOL1Cell_DR10n2_50 uM_v3. Compounds were dispensed at 200 nL in DMSO. The final top concentration was 10 μM with a 10 point 3-fold dilution in duplicate in the MultiTox assay.
20 μL was transferred from the 5× tet plate to the ARP and mixed, then 5 μL of 5× tet and the compounds were transferred to the cell plate and mixed using the Bravo. The cell plate was placed in the humidified 37° C. 5% CO2 incubator for 24 hours.
The MultiTox-Fluor Multiplex Cytotoxicity Assay was performed in accordance with the manufacturer's protocol. After cells were incubated with tet and compound for 24 hours, 25 μL of 1× MultiTox reagent was added to each well using the Multidrop dispenser; the plates were placed on a plate shaker (600 rpm) for 2 minutes, then centrifuged briefly and placed back in the 37° C. incubator for 30 minutes. The cell viability (excitation: 400 nm, emission: 486 nm) and cytotoxicity (excitation: 485 nm, emission: 535 nm) were read using the EnVision plate reader. A ratio of dead (cytotoxicity) to live (viability) cells was reported. Data was exported and analyzed in Genedata. Data was normalized using percent of control, no tet (100% viability), and 50 ng/mL tet treated (0% viability), and fit using Smart Fit settings in Genedata.
On to `Cc1ccc2c(c1)C1(CCN(Cc3cnn(CCO)c3)[C@@H](C)C1)OCC2` (some centres unmarked) [Compound 98], for which the IC50 was at most 50 nM.
In the case of `Cc1ccc2c(c1)C1(CCN(Cc3cnn(CCO)c3)[C@@H](C)C1)OCC2` (some centres unmarked) [Compound 99], the IC50 was at least 500 nM.
Turning to `Cc1ccc2c(c1)[C@]1(CCN(Cc3cnn(CC(C)(CO)CO)c3)[C@@H](C)C1)OCC2` [Compound 100], the IC50 is at most 50 nM.
Take `Cc1ccc2c(c1)[C@@]1(CCN(Cc3cnn(CC(C)(CO)CO)c3)[C@@H](C)C1)OCC2` [Compound 101]: the IC50 was 50 to 500 nM.
With `C[C@H]1C[C@@]2(CCN1Cc1cnn(CC(=O)N(C)C)c1)OCCc1ccc(Cl)cc12` [Compound 102], the IC50 was in the range of 50 to 500 nM.
For `C[C@H]1C[C@@]2(CCN1Cc1cnn(CCO)c1)OCCc1ccc(Cl)cc12` [Compound 103], the IC50 is at most 50 nM.
Consider `C[C@H]1C[C@@]2(CCN1Cc1cn[nH]c1)OCCc1ccc(Cl)cc12` [Compound 104], for which the IC50 was at most 50 nM.
With `C[C@H]1C[C@@]2(CCN1Cc1cn(C)nn1)OCCc1ccc(Cl)cc12` [Compound 105], the IC50 was at most 50 nM.
In the case of `C[C@H]1C[C@@]2(CCN1Cc1c[nH]nn1)OCCc1ccc(Cl)cc12` [Compound 106], the IC50 was at most 50 nM.
Regarding `C[C@H]1C[C@@]2(CCN1Cc1ccc3c(c1)n(C)c(=O)n3C)OCCc1ccc(Cl)cc12` [Compound 107], the IC50 was at most 50 nM.
With `C[C@H]1C[C@@]2(CCN1Cc1cn(C)cn1)OCCc1ccc(Cl)cc12` [Compound 108], the IC50 is at least 500 nM.
Turning to `Cc1cc(CN2CC[C@]3(C[C@@H]2C)OCCc2ccc(Cl)cc23)[nH]n1` [Compound 109], the IC50 is at most 50 nM.
The result for `C[C@H]1C[C@@]2(CCN1Cc1ncc[nH]1)OCCc1ccc(Cl)cc12` [Compound 110] reads 50 to 500 nM; that for `C[C@H]1C[C@@]2(CCN1Cc1cnn(C)c1)OCCc1ccc(Cl)cc12` [Compound 111], at most 50 nM; that for `Cc1ncc(CN2CC[C@]3(C[C@@H]2C)OCCc2ccc(Cl)cc23)cn1` [Compound 112], at most 50 nM.
Regarding `C[C@H]1C[C@@]2(CCN1Cc1cnn3c1CCC3)OCCc1ccc(Cl)cc12` [Compound 113], the IC50 is at least 500 nM.
As to `C[C@H]1C[C@@]2(CCN1Cc1cccnc1)OCCc1ccc(Cl)cc12` [Compound 114], the IC50 is at most 50 nM.
The result for `C[C@H]1C[C@@]2(CCN1Cc1cnn(CC(C)(CO)CO)c1)OCCc1ccc(Cl)cc12` [Compound 115] reads at most 50 nM; that for `C[C@H]1C[C@@]2(CCN1Cc1cnn(C3CCS(=O)(=O)C3)c1)OCCc1ccc(Cl)cc12` (some centres unmarked) [Compound 116], at most 50 nM.
The result for `C[C@H]1C[C@@]2(CCN1Cc1cnn(-c3ccccn3)c1)OCCc1ccc(Cl)cc12` [Compound 117] reads at most 50 nM; that for `C[C@H]1C[C@@]2(CCN1Cc1ccncc1)OCCc1ccc(Cl)cc12` [Compound 118], at most 50 nM.
As to `C[C@H]1C[C@@]2(CCN1Cc1cncnc1)OCCc1ccc(Cl)cc12` [Compound 119], the IC50 is at most 50 nM.
With `C[C@H]1C[C@@]2(CCN1Cc1cnn(C(C)(C)C)c1)OCCc1ccc(Cl)cc12` [Compound 120], the IC50 was in the range of 50 to 500 nM.
For `CCn1cc(CN2CC[C@]3(C[C@@H]2C)OCCc2ccc(Cl)cc23)cn1` [Compound 121], the IC50 was at most 50 nM.
With `C[C@H]1C[C@@]2(CCN1Cc1cnn(C(F)F)c1)OCCc1ccc(Cl)cc12` [Compound 122], the IC50 was at most 50 nM.
On to `C[C@H]1C[C@@]2(CCN1Cc1cnc(N)nc1)OCCc1ccc(Cl)cc12` [Compound 123], for which the IC50 is at most 50 nM.
Take `C[C@H]1C[C@@]2(CCN1Cc1cnn(C[C@@H](O)C(C)(C)O)c1)OCCc1ccc(Cl)cc12` [Compound 124]: the IC50 is at most 50 nM.
Consider `C[C@H]1C[C@@]2(CCN1Cc1cnn(C[C@H](O)C(C)(C)O)c1)OCCc1ccc(Cl)cc12` [Compound 125], for which the IC50 is at most 50 nM.
For the molecule `CNS(=O)(=O)CCn1cc(CN2CC[C@]3(C[C@@H]2C)OCCc2ccc(Cl)cc23)cn1` [Compound 126], the IC50 was at most 50 nM.
With `Cn1cc(CN2CCC3(CC2)OCCc2ccccc23)cn1` [Compound 127], the IC50 is at least 500 nM.
The result for `Cn1cc(CN2CCC3(CC2)OCCc2ccc(C(F)(F)F)cc23)cn1` [Compound 128] reads at least 500 nM; that for `CS(=O)(=O)CCn1cc(CN2CCC3(CC2)OCCc2ccc(Cl)cc23)nn1` [Compound 129], at least 500 nM.
The result for `CS(=O)(=O)CCn1cc(CN2CCC3(CC2)OCC(O)c2ccc(Cl)cc23)cn1` (centres unmarked) [Compound 130] reads 50 to 500 nM; that for `C[C@H]1C[C@@]2(CCN1Cc1cnn(C)c1)OCC(O)c1ccc(Cl)cc12` (some centres unmarked) [Compound 131], at most 50 nM.
Regarding `C[C@H]1C[C@@]2(CCN1Cc1cnn(CCS(C)(=O)=O)c1)OC[C@H](O)c1ccc(Cl)cc12` [Compound 132], the IC50 is at most 50 nM.
The result for `C[C@H]1C[C@@]2(CCN1Cc1cnn(CCS(C)(=O)=O)c1)OC[C@@H](O)c1ccc(Cl)cc12` [Compound 133] reads at most 50 nM; that for `C[C@H]1C[C@@]2(CCN1Cc1cnn(C)c1)OCC(O)c1ccc(Cl)cc12` (some centres unmarked) [Compound 134], at most 50 nM; that for `C[C@H]1C[C@@]2(CCN1Cc1cnn(CCS(C)(=O)=O)c1)OCC(F)(F)c1ccc(Cl)cc12` [Compound 135], at most 50 nM.
Take `Cc1ccc2c(c1)C1(CCN(Cc3ccccc3)C(C)C1)OCC2` (centres unmarked) [Compound 136]: the IC50 lay in the range of 50 to 500 nM.
In the case of `Cc1ccc2c(c1)C1(CCN(Cc3ccccc3)C(C)C1)OCC2` (centres unmarked) [Compound 137] it was at least 500 nM.
On to `C[C@H]1C[C@@]2(CCN1Cc1ccccn1)OCCc1ccc(Cl)cc12` [Compound 138], for which the IC50 was at least 500 nM.
As to `CC1CN(Cc2cnn(C)c2)CCC12OCCc1ccc(Cl)cc12` (centres unmarked) [Compound 140, 7-chloro-3′-methyl-1′-[(1-methylpyrazol-4-yl)methyl]spiro[isochromane-1,4′-piperidine]], the IC50 was at least 500 nM.
Regarding `C[C@H]1C[C@@]2(CCN1Cc1cn(CCO)nn1)OCCc1ccc(Cl)cc12` [Compound 141, 2-[4-[[(1R,2′S)-7-chloro-2′-methyl-spiro[isochromane-1,4′-piperidine]-1′-yl]methyl]triazol-1-yl]ethanol], the IC50 was at most 50 nM.
With `C[C@H]1C[C@@]2(CCN1Cc1cn(Cc3ccnc(CO)c3)nn1)OCCc1ccc(Cl)cc12` [Compound 142, (4-((4-(((1R,2′S)-7-chloro-2′-methylspiro[isochromane-1,4′-piperidin]-1′-yl)methyl)-1H-1,2,3-triazol-1-yl)methyl)pyridin-2-yl)methanol], the IC50 lay within 50 to 500 nM.
As to `C[C@H]1C[C@@]2(CCN1Cc1cn(CC(O)C(C)(C)O)nn1)OCCc1ccc(Cl)cc12` (some centres unmarked) [Compound 143], the IC50 is at most 50 nM.
In the case of `CC(O)Cn1cc(CN2CC[C@]3(C[C@@H]2C)OCCc2ccc(Cl)cc23)nn1` (some centres unmarked) [Compound 144], the IC50 is at most 50 nM.
For `C[C@H]1C[C@@]2(CCN1Cc1cn(CC3CC(=O)N(C)C3)nn1)OCCc1ccc(Cl)cc12` (some centres unmarked) [Compound 145], the IC50 was in the range of 50 to 500 nM.
The result for `C[C@H]1C[C@@]2(CCN1Cc1cn(C3CC(=O)N(C)C3)nn1)OCCc1ccc(Cl)cc12` (some centres unmarked) [Compound 146] reads at most 50 nM; that for `C[C@H]1C[C@@]2(CCN1Cc1cn(CCCO)nn1)OCCc1ccc(Cl)cc12` [Compound 147], at most 50 nM; that for `C[C@H]1C[C@@]2(CCN1Cc1cn(CC3(CO)CC3)nn1)OCCc1ccc(Cl)cc12` [Compound 148], at most 50 nM.
